Measurements taken from ChEMBL document CHEMBL1156409, “Durhamycin A, a potent inhibitor of HIV Tat transactivation” (J Nat Prod, 2002).

What was measured:
[1] = system: Human immunodeficiency virus; test: Antiviral activity against HIV H9/3B in HeLa P4/P5 cells after 48 hrs by vertical assay; assay type: functional, organism-based; conditions: Human immunodeficiency virus 1, H9/3B
[2] = Cytotoxicity against human HeLa P4/P5 cells up to 5 uM; assay type: cell-based
[3] = Cytotoxicity against human 63A9 cells at 25 uM by MTS assay; assay type: cell-based; conditions: 63a9, 25 µM
[4] = Inhibition of HIV Tat transactivation in human 63A9 cells by luciferase based reporter gene assay; assay type: cell-based, Human immunodeficiency virus
[5] = Human immunodeficiency virus 1, 63A9, read-out: IC50

| IC50 [1] [nM] | IC50 [4, 5] [nM] | IC50 ([4]; 63a9) | Structure (SMILES) | Activity [2] | Activity [3] |
| --- | --- | --- | --- | --- | --- |
| 11.6 | 4.8 |  | CCC(C)c1c(O[C@H]2C[C@@H](O[C@H]3C[C@@H](O)[C@H](O)[C@@H](C)O3)[C@H](O)[C@@H](C)O2)cc2cc3c(c(O)c2c1O)C(=O)C(O[C@H]1C[C@@H](O[C@H]2C[C@@H](O[C@H]4C[C@@H](O[C@H]5C[C@@H](O)[C@H](O)[C@@H](C)O5)[C@H](O)[C@@H](C)O4)[C@@H](OC(C)=O)[C@@H](C)O2)[C@H](O)[C@@H](C)O1)C(C(OC)C(=O)C(O)C(C)O)C3 (stereo partly specified) [DURHAMYCIN A] | Non-toxic | Non-toxic |
|  |  | Not Active | CCC(C)c1c(O)cc2cc3c(c(O)c2c1O)C(=O)C(O)C(C(OC)C(=O)C(O)C(C)O)C3 (stereo unspecified) |  |  |
|  | 48 |  | CCC(C)c1c(O[C@H]2C[C@@H](O[C@H]3C[C@@H](O)[C@H](O)[C@@H](C)O3)[C@H](O)[C@@H](C)O2)cc2cc3c(c(O)c2c1O)C(=O)C(O[C@H]1C[C@@H](O[C@H]2C[C@@H](O[C@H]4C[C@@H](O)[C@H](O)[C@@H](C)O4)[C@@H](OC(C)=O)[C@@H](C)O2)[C@H](O)[C@@H](C)O1)C(C(OC)C(=O)C(O)C(C)O)C3 (stereo partly specified) [DURHAMYCIN B] |  |  |
